The source of these data is patent publication US20110071225A1, “METHOD FOR OBTAINING A SEQUOYITOL-CONTAINING EXTRACT FROM GENUS NEPHROLEPIS AND USES THEREOF” (GUANGZHOU WELMAN NEW DRUG R&D CO., LTD., priority 2008, published 2011).

The test system of data set [1] is diabetes models. Conditions: sequoyitol isolated from Taxus chinensis; cited from earlier work.
For data set [2] the following is noted: sequoyitol isolated from Taxus chinensis; cited from earlier work.
Data set [3] can be described thus: Solubility in water. Type of data set: physicochemical. As to the method:
Sequoyitol was dissolved in water and sterilized by filtration. Solutions for injection were prepared according to the operation procedure of solutions for injection. Powder for injection was prepared according to the operation procedure of lyophilized powder for injection.

Data set [4] has as its system elevated level of blood glucose induced by alloxan in mice. Nature of the data set: Effect on the elevated level of blood glucose induced by alloxan in mice. It is filed as in vivo. The note with it: 75 mg/kg via gavage, 7 days. As to the method: 80 male mice weighed 22˜25 g were used. 20 mice were randomly taken as the blank group. Others were injected intravenously with alloxan via caudal vein at a dose of 65 mg/kg body weight, and then modeled according to established methods. The mice were divided into 3 groups according to their level of blood glucose, in which 2 groups were administered via gavage with 60 mg/kg of the Nephrolepis auriculata extract, 75 mg/kg of phenformin (positive control) respectively for consecutive 7 days, in a volume of 0.1 ml/10 g body weight. The same volume of distilled water was administered to the blank group and the control group. Blood glucose was determined using glucose oxidase method.

Molecules are shown by their SMILES.

On to `CO[C@H]1[C@H](O)[C@@H](O)[C@@H](O)[C@@H](O)[C@@H]1O` [Sequoyitol, sequoyitol], for which, in data set [1], the Absorption of glucose result was “inhibits”, the “Breakdown of hepatic glycogen” value is on record as “inhibits” and the “High glycemia in diabetes models” value is listed as “remarkably decreases”. Further, in data set [2], the Toxicity entry is given as “very low toxicity”. In addition, the Solubility in water entry in data set [3] is on record as “well soluble”.

With `[H]/N=C(/N)N/C(=N/[H])NCCc1ccccc1` [phenformin], in data set [4], the “Decrease of hyperglycemia induced by alloxan vs control group” value turned out to be 152.8 mg/dL.
